Test results taken from publication doi:10.1101/2023.11.24.568596v1 (biorxiv, 2023).
Each block holds one compound with its values, some of them ahead of it.

Columns and labels:
Details in all cases: binder
[1] = molecular target: STLK3 (Homo sapiens, UniProt Q9UEW8)
[2] = molecular target: EphA2 (Homo sapiens, UniProt P29317)
[3] = molecular target: T1, ULK3 (Homo sapiens, UniProt Q6PHR2)
T1 sequence (Q6PHR2 1-472): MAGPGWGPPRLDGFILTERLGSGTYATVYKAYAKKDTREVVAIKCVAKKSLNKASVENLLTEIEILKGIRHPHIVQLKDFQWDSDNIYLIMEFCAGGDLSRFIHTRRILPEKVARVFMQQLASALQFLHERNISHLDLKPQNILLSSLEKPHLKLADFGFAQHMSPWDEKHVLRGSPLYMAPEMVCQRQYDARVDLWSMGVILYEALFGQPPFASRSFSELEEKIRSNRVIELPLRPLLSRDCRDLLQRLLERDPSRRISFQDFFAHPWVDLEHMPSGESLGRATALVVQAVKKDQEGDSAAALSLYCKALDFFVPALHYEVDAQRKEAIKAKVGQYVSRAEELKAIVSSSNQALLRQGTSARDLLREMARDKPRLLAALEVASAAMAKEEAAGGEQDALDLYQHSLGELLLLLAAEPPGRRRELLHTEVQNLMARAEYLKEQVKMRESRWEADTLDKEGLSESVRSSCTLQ

[4] = molecular target: T2, PLK4 (Homo sapiens, UniProt O00444)
T2 sequence (O00444 1-970): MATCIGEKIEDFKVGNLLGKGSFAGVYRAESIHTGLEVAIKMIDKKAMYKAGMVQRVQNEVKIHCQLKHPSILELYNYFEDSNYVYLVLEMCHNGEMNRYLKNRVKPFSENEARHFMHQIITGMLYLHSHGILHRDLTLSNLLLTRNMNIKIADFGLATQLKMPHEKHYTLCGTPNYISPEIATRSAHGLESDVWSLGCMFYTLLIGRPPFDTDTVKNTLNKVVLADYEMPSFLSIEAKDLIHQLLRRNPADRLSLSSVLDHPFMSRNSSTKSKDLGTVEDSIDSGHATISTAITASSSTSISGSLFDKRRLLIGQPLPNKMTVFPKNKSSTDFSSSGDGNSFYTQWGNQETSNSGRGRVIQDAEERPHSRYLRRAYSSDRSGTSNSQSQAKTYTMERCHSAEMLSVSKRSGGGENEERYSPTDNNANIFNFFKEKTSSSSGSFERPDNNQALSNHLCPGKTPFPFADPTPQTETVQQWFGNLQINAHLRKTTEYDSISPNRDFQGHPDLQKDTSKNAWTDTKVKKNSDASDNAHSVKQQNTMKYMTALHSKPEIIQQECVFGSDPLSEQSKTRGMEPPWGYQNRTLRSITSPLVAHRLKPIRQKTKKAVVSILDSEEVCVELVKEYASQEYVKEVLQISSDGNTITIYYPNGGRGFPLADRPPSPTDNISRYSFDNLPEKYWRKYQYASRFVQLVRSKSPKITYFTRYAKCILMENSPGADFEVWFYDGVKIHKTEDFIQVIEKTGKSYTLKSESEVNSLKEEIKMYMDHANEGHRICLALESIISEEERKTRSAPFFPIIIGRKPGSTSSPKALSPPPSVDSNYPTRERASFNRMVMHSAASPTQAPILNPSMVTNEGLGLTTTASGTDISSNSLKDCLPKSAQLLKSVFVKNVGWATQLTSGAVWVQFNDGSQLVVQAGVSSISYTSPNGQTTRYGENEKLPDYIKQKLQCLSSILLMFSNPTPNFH

[5] = molecular target: NDR2 (Homo sapiens, UniProt Q9Y2H1)
[6] = molecular target: CaMKK2 (Homo sapiens, UniProt Q96RR4)
[7] = molecular target: T3, MAP2K6 (Homo sapiens, UniProt P52564)
T3 sequence (P52564 1-334): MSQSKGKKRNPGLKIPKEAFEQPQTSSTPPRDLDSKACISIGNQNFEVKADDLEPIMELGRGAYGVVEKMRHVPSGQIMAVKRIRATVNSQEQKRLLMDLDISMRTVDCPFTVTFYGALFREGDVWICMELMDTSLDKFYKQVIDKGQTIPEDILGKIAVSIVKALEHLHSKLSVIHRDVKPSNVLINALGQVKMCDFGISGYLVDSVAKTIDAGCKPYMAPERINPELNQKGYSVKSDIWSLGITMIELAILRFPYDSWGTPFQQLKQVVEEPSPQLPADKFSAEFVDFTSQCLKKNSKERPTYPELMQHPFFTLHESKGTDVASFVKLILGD

[8] = molecular target: BIKE (Homo sapiens, UniProt Q9NSY1)
Sequence of BIKE (Q9NSY1 whole entry): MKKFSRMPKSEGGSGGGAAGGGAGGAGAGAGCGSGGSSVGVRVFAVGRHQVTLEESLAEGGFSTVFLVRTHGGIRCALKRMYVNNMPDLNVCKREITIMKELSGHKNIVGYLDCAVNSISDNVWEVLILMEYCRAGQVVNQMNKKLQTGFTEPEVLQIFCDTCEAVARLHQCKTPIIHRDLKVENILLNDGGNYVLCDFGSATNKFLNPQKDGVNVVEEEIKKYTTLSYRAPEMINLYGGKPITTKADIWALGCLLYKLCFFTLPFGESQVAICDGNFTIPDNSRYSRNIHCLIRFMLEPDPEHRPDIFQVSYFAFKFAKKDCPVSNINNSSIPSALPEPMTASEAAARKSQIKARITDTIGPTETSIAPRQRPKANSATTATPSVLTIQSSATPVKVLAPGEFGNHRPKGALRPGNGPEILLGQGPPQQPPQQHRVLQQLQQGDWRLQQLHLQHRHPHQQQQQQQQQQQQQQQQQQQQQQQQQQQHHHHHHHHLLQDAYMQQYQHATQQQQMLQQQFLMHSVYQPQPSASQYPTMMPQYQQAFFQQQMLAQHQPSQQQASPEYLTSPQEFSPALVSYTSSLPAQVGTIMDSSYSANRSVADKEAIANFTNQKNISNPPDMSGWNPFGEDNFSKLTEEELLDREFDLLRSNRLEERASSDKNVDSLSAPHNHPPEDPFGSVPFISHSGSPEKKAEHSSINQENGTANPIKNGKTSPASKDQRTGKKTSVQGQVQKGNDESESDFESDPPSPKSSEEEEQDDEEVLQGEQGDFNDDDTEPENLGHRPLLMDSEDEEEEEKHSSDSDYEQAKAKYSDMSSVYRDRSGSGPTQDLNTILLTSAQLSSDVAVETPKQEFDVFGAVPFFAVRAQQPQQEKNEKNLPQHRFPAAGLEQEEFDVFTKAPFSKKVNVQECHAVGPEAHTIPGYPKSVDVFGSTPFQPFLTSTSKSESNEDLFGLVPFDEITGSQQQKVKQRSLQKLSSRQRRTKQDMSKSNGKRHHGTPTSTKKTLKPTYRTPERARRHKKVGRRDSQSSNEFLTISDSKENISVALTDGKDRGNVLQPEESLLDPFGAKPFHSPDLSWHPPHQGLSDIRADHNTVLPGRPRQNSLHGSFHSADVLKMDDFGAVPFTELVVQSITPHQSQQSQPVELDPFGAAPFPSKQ

Sequence of EphA2 (P29317 whole entry): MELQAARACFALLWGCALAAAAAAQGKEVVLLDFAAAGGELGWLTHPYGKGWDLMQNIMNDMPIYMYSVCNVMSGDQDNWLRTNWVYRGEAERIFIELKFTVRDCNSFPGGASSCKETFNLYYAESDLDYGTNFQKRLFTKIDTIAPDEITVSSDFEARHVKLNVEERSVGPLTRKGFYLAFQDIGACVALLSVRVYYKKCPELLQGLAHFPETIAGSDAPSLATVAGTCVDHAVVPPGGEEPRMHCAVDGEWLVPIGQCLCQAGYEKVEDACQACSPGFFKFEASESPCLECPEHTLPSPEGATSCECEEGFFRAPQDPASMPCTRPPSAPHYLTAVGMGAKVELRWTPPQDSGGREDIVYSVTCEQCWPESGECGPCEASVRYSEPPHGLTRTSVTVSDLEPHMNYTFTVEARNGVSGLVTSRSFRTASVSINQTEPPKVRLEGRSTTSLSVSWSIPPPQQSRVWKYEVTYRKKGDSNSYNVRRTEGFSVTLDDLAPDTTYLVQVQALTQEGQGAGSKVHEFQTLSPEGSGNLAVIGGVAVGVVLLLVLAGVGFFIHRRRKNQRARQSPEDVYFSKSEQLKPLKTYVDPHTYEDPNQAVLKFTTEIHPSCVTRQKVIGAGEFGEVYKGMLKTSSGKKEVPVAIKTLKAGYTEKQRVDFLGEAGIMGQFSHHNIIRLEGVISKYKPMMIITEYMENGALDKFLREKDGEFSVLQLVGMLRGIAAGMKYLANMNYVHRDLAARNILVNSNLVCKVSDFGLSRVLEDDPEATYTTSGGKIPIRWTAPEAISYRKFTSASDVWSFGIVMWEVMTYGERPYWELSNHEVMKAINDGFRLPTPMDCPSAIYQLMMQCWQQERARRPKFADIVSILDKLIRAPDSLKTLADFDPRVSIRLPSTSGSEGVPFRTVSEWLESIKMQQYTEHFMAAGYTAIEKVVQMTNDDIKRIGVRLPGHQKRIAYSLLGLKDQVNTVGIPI
Sequence of NDR2 (Q9Y2H1 whole entry): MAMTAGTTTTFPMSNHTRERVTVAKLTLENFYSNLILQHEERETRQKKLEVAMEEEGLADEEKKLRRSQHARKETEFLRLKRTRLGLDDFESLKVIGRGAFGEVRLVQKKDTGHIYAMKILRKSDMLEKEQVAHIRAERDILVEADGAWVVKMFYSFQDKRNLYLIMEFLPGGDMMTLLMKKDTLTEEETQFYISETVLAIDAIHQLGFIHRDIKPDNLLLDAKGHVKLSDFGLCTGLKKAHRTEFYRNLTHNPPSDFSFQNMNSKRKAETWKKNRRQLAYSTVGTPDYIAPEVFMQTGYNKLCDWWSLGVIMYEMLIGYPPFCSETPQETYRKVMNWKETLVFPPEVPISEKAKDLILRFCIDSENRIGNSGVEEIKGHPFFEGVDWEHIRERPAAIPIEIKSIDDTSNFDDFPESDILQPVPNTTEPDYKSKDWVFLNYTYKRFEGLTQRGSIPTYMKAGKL
Sequence of CaMKK2 (Q96RR4 whole entry): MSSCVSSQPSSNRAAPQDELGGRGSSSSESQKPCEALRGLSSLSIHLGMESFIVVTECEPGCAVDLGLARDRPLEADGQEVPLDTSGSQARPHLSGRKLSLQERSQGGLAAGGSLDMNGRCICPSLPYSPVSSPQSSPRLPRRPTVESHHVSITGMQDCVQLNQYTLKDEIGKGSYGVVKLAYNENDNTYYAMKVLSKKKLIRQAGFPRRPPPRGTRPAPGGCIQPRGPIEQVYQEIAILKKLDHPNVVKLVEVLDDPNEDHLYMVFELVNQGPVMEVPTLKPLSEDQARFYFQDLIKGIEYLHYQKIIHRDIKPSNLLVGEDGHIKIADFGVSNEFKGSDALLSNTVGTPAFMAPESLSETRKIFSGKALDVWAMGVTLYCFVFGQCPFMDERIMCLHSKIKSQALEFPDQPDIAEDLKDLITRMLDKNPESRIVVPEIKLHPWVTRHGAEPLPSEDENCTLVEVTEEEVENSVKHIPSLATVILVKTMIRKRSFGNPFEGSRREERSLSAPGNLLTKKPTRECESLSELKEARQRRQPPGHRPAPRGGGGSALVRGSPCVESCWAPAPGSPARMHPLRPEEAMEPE

dTm 33 [1]: 16.8 °C
dTm 33 [2]: 8.3 °C
dTm 33 [3]: 13.9 °C
dTm 33 [4]: 13.1 °C
dTm 33 [5]: 10.4 °C
dTm 33 [6]: 4.3 °C
dTm 33 [7]: 10.2 °C
dTm 33 [8]: 7.2 °C
SMILES: Cc1cccc(-c2ccc(-c3cc4cnc(Nc5ccc(F)c(CO)c5)nc4n(CCCCN)c3=O)c(Cl)c2)n1 [compound 33, 8-(4-Aminobutyl)-6-(2-chloro-4-(6-methylpyridin-2-yl)phenyl)-2-((4-fluoro-3-(hydroxymethyl)phenyl)amino)pyrido[2,3-d]pyrimidin-7(8H)-one]

dTm 35 [1]: 13.4 °C
dTm 35 [2]: 4.6 °C
dTm 35 [3]: 12.7 °C
dTm 35 [4]: 13.6 °C
dTm 35 [5]: 6.5 °C
dTm 35 [6]: 6.9 °C
dTm 35 [7]: 6.8 °C
dTm 35 [8]: 1.3 °C
SMILES: COc1cc(N2CCOCC2)ccc1Nc1ncc2cc(-c3ccc(-c4cccc(C)n4)cc3Cl)c(=O)n(CCCCN)c2n1 [compound 35, 8-(4-Aminobutyl)-6-(2-chloro-4-(6-methylpyridin-2-yl)phenyl)-2-((2-methoxy-4-morpholino-phenyl)amino)pyrido[2,3-d]pyrimidin-7(8H)-one]

dTm 36 [1]: 9.3 °C
dTm 36 [2]: 2.4 °C
dTm 36 [3]: 8.9 °C
dTm 36 [4]: 11.8 °C
dTm 36 [5]: 5.2 °C
dTm 36 [6]: 5.8 °C
dTm 36 [7]: 4.4 °C
dTm 36 [8]: 1.0 °C
SMILES: COc1cc(N2CCN(C)CC2)ccc1Nc1ncc2cc(-c3ccc(-c4cccc(C)n4)cc3Cl)c(=O)n(CCCCN)c2n1 [compound 36, 8-(4-Aminobutyl)-6-(2-chloro-4-(6-methylpyridin-2-yl)phenyl)-2-((2-methoxy-4-(4-methylpiperazin-1-yl)phenyl)amino)pyrido[2,3-d]pyrimidin-7(8H)-one]

dTm 34 [1]: 11.0 °C
dTm 34 [2]: 3.9 °C
dTm 34 [3]: 8.3 °C
dTm 34 [4]: 8.8 °C
dTm 34 [5]: 6.0 °C
dTm 34 [6]: 4.3 °C
dTm 34 [7]: 5.4 °C
dTm 34 [8]: 0.8 °C
SMILES: COc1ccc(O)c(Nc2ncc3cc(-c4ccc(-c5cccc(C)n5)cc4Cl)c(=O)n(CCCCN)c3n2)c1 [compound 34, 8-(4-Aminobutyl)-6-(2-chloro-4-(6-methylpyridin-2-yl)phenyl)-2-((2-hydroxy-5-methoxy-phenyl)amino)pyrido[2,3-d]pyrimidin-7(8H)-one]
